# Test results as given in patent US12679837B2, “Aminopyrimidine compound as CDK2/4/6 triple inhibitor” (CISEN PHARMACEUTICAL CO., LTD, priority 2019, dated 2026).
# pIC50: −log10 of the molar value.
# Columns and labels:
# CDK4/CyclinD1 = target: T1, CDK4/CyclinD1 (Homo sapiens, UniProt P11802); experiment: CDK4/CyclinD1 kinase activity test (LANCE Ultra TR-FRET); assay type: biochemical; settings: 350 μM ATP, 25° C., 120 minutes; read-out: Enzyme activity data (IC50) CDK4/cyclinD1
# T1 construct: purchased Invitrogen
# T1 sequence (P11802 whole entry): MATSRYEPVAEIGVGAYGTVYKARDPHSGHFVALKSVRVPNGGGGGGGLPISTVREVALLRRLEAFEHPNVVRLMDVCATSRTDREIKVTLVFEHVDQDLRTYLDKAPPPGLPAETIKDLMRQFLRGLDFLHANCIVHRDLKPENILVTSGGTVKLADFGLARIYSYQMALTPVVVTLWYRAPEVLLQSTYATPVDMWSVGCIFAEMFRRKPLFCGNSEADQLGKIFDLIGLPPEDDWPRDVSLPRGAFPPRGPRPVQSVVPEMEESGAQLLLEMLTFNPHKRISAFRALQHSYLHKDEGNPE
# T1 sequence (P24385 whole entry partner): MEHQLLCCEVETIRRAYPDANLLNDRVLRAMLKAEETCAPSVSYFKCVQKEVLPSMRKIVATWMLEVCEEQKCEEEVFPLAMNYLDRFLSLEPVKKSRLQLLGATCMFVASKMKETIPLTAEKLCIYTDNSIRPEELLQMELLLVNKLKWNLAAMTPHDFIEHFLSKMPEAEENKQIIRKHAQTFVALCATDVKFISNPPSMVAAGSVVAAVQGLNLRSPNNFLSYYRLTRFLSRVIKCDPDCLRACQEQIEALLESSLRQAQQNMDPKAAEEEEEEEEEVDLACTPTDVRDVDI
# Procedure: Experimental materials: CDK4/CyclinD1 kinase was purchased from Invitrogen, reaction substrate LANCE Ultra ULight™-4E-BP-1 (Thr37146) Peptide and EU-ANTI-P-4EBP1 (THR37/46) were purchased from PerkinElmer. Nivo Multilabel Analyzer (PerkinElmer).
# (§1) Experimental method: preparation of kinase buffer: The components of the buffer include: 50 mM of hydroxyethylpiperazine […] solution with pH 7.5, 1 mM of EDTA, 10 mM of magnesium chloride, 0.01% lauryl polyoxyethylene ether (Brij-35), 2 mM of enzyme dithiothreitol, kinase buffer dilution enzyme, substrate LANCE Ultra ULight™-4E-BP-1 (Thr37146) Peptide, adenosine triphosphate and inhibitor. […] The reaction system was continued at 25° C. for 120 minutes. After the reaction was complete, a mixture of 5 μL of EDTA and 2× LANCE™ Detection Buffer (1:1) was added to each well, and reacted at 25° C. for 5 minutes, after the reaction was complete, 5 μL of LANCE Ultra Eu-anti-P-4E-BP1(Thr37MS) (4 nM) was added to each well, and reacted at 25° C. for 60 minutes, the reaction signal was detected by Nivo instrument according to the principle of time-resolved fluorescence resonance energy transfer.
# (§2) Table 1 provides the enzymatic inhibitory activities of the compounds of the present invention on CDK2/CyclinA2, CDK2/CyclinE1, CDK4/CyclinD1, CDK6/CyclinD1, CDK9/CyclinT1.
# CDK6/CyclinD1 = target: T2, CDK6/CyclinD1 (Homo sapiens, UniProt Q00534); experiment: CDK6/CyclinD1 kinase activity test (LANCE Ultra TR-FRET); assay type: biochemical; settings: 250 μM ATP, 25° C., 120 minutes; read-out: Enzyme activity data (IC50) CDK6/cyclinD1
# T2 construct: purchased Carna
# T2 sequence (Q00534 whole entry): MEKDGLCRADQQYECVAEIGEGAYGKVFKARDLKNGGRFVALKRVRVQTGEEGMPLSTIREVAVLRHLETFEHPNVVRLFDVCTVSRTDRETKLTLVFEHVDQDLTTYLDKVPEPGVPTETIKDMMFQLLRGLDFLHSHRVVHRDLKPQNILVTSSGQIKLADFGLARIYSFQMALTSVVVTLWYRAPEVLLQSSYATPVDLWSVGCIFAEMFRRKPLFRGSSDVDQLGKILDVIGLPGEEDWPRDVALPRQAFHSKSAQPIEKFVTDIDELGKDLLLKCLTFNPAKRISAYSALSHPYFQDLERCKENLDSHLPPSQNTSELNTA
# T2 sequence (P24385 whole entry partner): as the sequence (P24385 whole entry partner) above
# Procedure: Experimental materials: CDK6/CyclinD1 kinase was purchased from Carna, reaction substrate LANCE Ultra ULight™-4E-BP-1 (Thr37146) Peptide and EU-ANTI-P-4EBP1 (THR37/46) were purchased from PerkinElmer. Nivo Multilabel Analyzer (PerkinElmer).
# as §1, §2
# CDK2/CyclinA2 = target: T3, CDK2/CyclinA2 (Homo sapiens, UniProt P24941); experiment: CDK2/CyclinA2 kinase activity test (ADP-Glo); assay type: biochemical; settings: 50 μM ATP, 25° C., 60 minutes; read-out: Enzyme activity data (IC50) CDK2/cyclinA
# T3 construct: purchased Promega
# Procedure: Experimental materials: CDK2/CyclinA2 kinase detection kit was purchased from Promega. Nivo Multilabel Analyzer (PerkinElmer).
# Experimental method: Kinase buffer dilution enzyme in the kit, substrate, adenosine triphosphate and inhibitor were used. The compounds to be tested were diluted 5-fold to the 8th concentration with a row gun, that is, from 50 μM to 0.65 nM, the concentration of DMSO was 5%, and a double-replicate well experiment was set up. 1 μL of each concentration gradient of inhibitor, 2 μL of CDK2/CyclinA2 enzyme (1.6 ng), and 2 μL of a mixture of substrate and ATP (50 μM of adenosine triphosphate, 0.1 μg/μL of substrate) were added to the microplate, and at this time, the final concentration gradient of compound was diluted from 10 μM to 0.13 nM. The reaction system was placed at 25° C. and reacted for 60 minutes. After the reaction was complete, 5 μL of ADP-Glo reagent was added to each well, and the reaction was continued at 25° C. for 40 minutes. At the end of the reaction, 10 μL of kinase detection reagent was added to each well. After the reaction was continued at 25° C. for 30 minutes, the chemiluminescence was read by a multi-label analyzer with an integration time of 0.5 seconds.
# Using the equation (Sample−Min)/(Max−Min)×100% to convert the original data into inhibition rate, the IC50 value can be obtained by curve fitting with four parameters (obtained by the mode of log(inhibitor) vs. response—Variable slope in GraphPad Prism). Table 1 provides the enzymatic inhibitory activities of the compounds of the present invention on CDK2/CyclinA2, CDK2/CyclinE1, CDK4/CyclinD1, CDK6/CyclinD1, CDK9/CyclinT1.
# CDK9/CyclinT1 = target: T4, CDK9/CyclinT1 (Homo sapiens, UniProt P50750); experiment: CDK9/CyclinT1 kinase activity assay (ADP-Glo); assay type: biochemical; settings: 100 μM ATP, 25° C., 60 minutes; read-out: Enzyme activity data (IC50) CDK9/CyclinT1
# T4 construct: purchased Carna
# T4 sequence (P50750 whole entry): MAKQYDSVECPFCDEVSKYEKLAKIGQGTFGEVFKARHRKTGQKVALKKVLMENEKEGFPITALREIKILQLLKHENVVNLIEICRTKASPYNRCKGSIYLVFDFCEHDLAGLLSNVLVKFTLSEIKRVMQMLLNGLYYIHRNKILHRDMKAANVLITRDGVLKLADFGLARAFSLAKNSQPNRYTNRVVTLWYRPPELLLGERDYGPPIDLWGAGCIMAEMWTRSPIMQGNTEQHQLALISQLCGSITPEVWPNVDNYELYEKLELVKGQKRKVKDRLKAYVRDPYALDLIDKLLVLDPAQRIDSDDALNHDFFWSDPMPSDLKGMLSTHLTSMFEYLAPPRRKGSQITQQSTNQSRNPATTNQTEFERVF
# T4 sequence (O60563 whole entry partner): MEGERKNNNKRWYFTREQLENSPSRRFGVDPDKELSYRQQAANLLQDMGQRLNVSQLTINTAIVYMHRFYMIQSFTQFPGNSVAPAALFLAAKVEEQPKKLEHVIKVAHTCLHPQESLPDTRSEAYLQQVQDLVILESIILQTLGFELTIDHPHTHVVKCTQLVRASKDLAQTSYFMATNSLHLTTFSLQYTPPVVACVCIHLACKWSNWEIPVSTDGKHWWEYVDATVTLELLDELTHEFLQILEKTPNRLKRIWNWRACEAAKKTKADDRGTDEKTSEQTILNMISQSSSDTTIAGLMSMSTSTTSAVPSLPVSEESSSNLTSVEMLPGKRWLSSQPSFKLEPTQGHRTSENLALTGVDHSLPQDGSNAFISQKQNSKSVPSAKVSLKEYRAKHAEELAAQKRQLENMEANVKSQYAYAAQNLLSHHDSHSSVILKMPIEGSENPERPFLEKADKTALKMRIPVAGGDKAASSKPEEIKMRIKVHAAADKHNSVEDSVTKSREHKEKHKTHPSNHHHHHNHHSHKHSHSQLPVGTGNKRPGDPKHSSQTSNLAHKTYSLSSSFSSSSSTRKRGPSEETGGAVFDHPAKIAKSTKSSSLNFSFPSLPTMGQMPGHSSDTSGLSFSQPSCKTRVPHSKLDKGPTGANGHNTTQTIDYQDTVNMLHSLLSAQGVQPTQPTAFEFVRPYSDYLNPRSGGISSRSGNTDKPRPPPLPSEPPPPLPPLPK
# Procedure: Experimental materials: CDK9/CyclinT1 kinase was purchased from Carna, the ADP-Glo detection kit was purchased from Promega, the PKDTide substrate and kinase reaction buffer were purchased from Signalchem. Nivo Multilabel Analyzer (PerkinElmer).
# Experimental method: Kinase buffer dilution enzyme in the kit, substrate, adenosine triphosphate and inhibitor were used. […] The reaction system was placed at 25° C. and reacted for 60 minutes. After the reaction was complete, 5 μL of ADP-Glo reagent was added to each well, and the reaction was continued at 25° C. for 40 minutes. At the end of the reaction, 10 μL of kinase detection reagent was added to each well. After the reaction was continued at 25° C. for 30 minutes, the chemiluminescence was read by a multi-label analyzer with an integration time of 0.5 seconds.
# as §2
# HCC1806 cells = experiment: HCC1806 cell activity test (CyQUANT); assay type: cell-based; settings: Homo sapiens, 168 h, 7 days, read-out: Antiproliferative activity (IC50) HCC1806
# Procedure: Experimental materials: RPMI-1640 medium, fetal bovine serum, penicillin/streptomycin antibiotics were purchased from Vicente. CyQUANT Cell Proliferation Assays (Cell proliferation assay kit) reagents were purchased from ThermoFisher. The HCC1806 cell line was purchased from Cobioer Biosciences Co., Ltd. Nivo Multilabel Analyzer (PerkinElmer).
# Experimental method: HCC1806 cells were seeded in a white 96-well plate, 80 μL of cell suspension per well, which contained 3000 HCC1806 cells. The cell plate was incubated overnight in a carbon dioxide incubator. The compounds to be tested were diluted 5-fold to the 9th concentration with a row gun, that is, from 10 mM to 25.6 nM, and a double-replicate well experiment was set up. 78 μL of medium was added to the middle plate, and then transferred 2 μL per well of the gradient diluted compound to the middle plate according to the corresponding position, mixed well and transferred 20 μL per well to the cell plate. […] After reaching the incubation time, the cell supernatant was removed, and the cell plate was placed in a −80° C. refrigerator for 1 hour, after which 100 μL of Cyquant reagent was added to each well, and a multi-label analyzer was used for reading. Another cell plate was prepared, and the signal value was read as the maximum value (Max value in the equation below) on the day of drug addition to participate in data analysis. […]
# HCT116 cells = experiment: HCT116 cell activity test (CellTiter-Glo); assay type: cell-based; settings: Homo sapiens, HCT-116, 96 h, 4 days, read-out: Antiproliferative activity (IC50) HCT 116
# Procedure: (§3) Experimental materials: McCoy' 5a medium, fetal bovine serum, and penicillin/streptomycin antibiotics were purchased from Vicente. CellTiter-Glo (chemiluminescence detection reagent for cell viability) reagent was purchased from Promega. The HCT116 cell line was purchased from Cobioer Biosciences Co., Ltd. Nivo Multilabel Analyzer (PerkinElmer).
# Experimental method: HCT116 cells were seeded in a white 96-well plate, 80 μL of cell suspension per well, which contained 1000 HCT116 cells. The cell plate was incubated overnight in a carbon dioxide incubator. The compounds to be tested were diluted 5-fold to the 9th concentration with a row gun, that is, from 2 mM to 5.12 nM, and a double-replicate well experiment was set up. 78 μL of medium was added to the middle plate, and then transferred 2 μL per well of the gradient diluted compound to the middle plate according to the corresponding position, mixed well and transferred 20 μL per well to the cell plate. […] Another cell plate was prepared, and the signal value was read as the maximum value (Max value in the equation below) on the day of drug addition to participate in data analysis. 25 μL of chemiluminescence detection reagent for cell viability was added to each well of the cell plate, and incubated at room temperature for 10 minutes to stabilize the luminescence signal. A multi-label analyzer was used for reading. […]
# MDA-MB-468 cells = experiment: MDA-MB-468 cell activity test (CellTiter-Glo); assay type: cell-based; settings: Homo sapiens, 168 h; MDA-MB-468 cells (Rb-negative), 7 days; read-out: Antiproliferative activity (IC50) MDA-MB-468
# Procedure: as §3, with “L15” for “McCoy' 5a”, “serum,” for “serum, and”, “MDA-MB-468” for “HCT116”
# Experimental method: MDA-MB-468 cells were seeded in a white 96-well plate, 80 μL of cell suspension per well, which contained 1000 MDA-MB-468 cells. The cell plate was incubated overnight in a carbon dioxide incubator. The compounds to be tested were diluted 5-fold to the 9th concentration with a row gun, that is, from 10 mM to 25.6 nM, and a double-replicate well experiment was set up. 78 μL of medium was added to the middle plate, and then transferred 2 μL per well of the gradient diluted compound to the middle plate according to the corresponding position, mixed well and transferred 20 μL per well to the cell plate. The concentration of compound transferred to the cell plate ranged from 50 μM to 0.128 nM. The cell plate was incubated in a carbon dioxide incubator for 7 days. Another cell plate was prepared, and the signal value was read as the maximum value (Max value in the equation below) on the day of drug addition to participate in data analysis. 25 μL of chemiluminescence detection reagent for cell viability was added to each well of the cell plate, and incubated at room temperature for 10 minutes to stabilize the luminescence signal. A multi-label analyzer was used for reading.
# Data analysis: Using the equation (Sample−Min)/(Max−Min)×100% to convert the original data into inhibition rate, the IC50 value can be obtained by curve fitting with four parameters (obtained by the mode of log(inhibitor) vs. response—Variable slope in GraphPad Prism).
SMILES,pIC50 (CDK4/CyclinD1),pIC50 (CDK6/CyclinD1),pIC50 (CDK2/CyclinA2),pIC50 (CDK9/CyclinT1),pIC50 (HCC1806 cells),pIC50 (HCT116 cells),pIC50 (MDA-MB-468 cells)
C[C@@]1(O)CCC[C@H]1N1C(=O)CCc2cnc(NC3CCN(S(=O)(=O)C4CC4)CC3)nc21 [Compound 3],7.63,8.32,8.93,–,–,–,–
CCS(=O)(=O)N1CCC(Nc2ncc3c(n2)N([C@@H]2CCC[C@@]2(C)O)C(=O)CC3)CC1 [Compound 4],7.43,8.27,8.88,–,–,–,–
CC(C)S(=O)(=O)N1CCC(Nc2ncc3c(n2)N([C@@H]2CCC[C@@]2(C)O)C(=O)CC3)CC1 [Compound 5],7.33,8.05,8.76,–,–,–,–
COCCS(=O)(=O)N1CCC(Nc2ncc3c(n2)N([C@@H]2CCC[C@@]2(C)O)C(=O)CC3)CC1 [Compound 6],7.42,8.28,8.95,–,–,–,–
C[C@@]1(O)CCC[C@H]1N1C(=O)CCc2cnc(NC3CCN(S(=O)(=O)C4CNC4)CC3)nc21 [Compound 7],8.40,8.82,8.85,–,–,–,–
CCN1CC(S(=O)(=O)N2CCC(Nc3ncc4c(n3)N([C@@H]3CCC[C@@]3(C)O)C(=O)CC4)CC2)C1 [Compound 8],7.83,8.47,8.75,–,–,–,–
CC(C)N1CC(S(=O)(=O)N2CCC(Nc3ncc4c(n3)N([C@@H]3CCC[C@@]3(C)O)C(=O)CC4)CC2)C1 [Compound 9],7.80,8.43,8.85,–,–,–,–
CN1CC(S(=O)(=O)N2CCC(Nc3ncc4c(n3)N([C@@H]3CCC[C@@]3(C)O)C(=O)CC4)CC2)C1 [Compound 10],8.04,8.58,8.82,–,–,–,–
"C[C@@]1(O)CCC[C@H]1n1c(=O)c(C(F)F)cc2cnc(NC3CCN(S(C)(=O)=O)CC3)nc21 [PF-06873600, reference compound]",–,–,–,7.76,6.34,6.85,6.92
